The source made the active and inactive calls. The calls are words filed in the database; no cut-off is given here.
What was measured:
[1] = Lipophilicity, logK of the compound by RP-HPLC analysis; format: physicochemical
[2] = system: Mycobacterium tuberculosis; experiment: Antimycobacterial activity against Mycobacterium tuberculosis H37Rv CNCTC My 331/88 incubated for 10 to 14 days by microplate alamar blue assay; format: functional
Mycobacterium kansasii = experiment: Antimycobacterial activity against Mycobacterium kansasii CNCTC My 235/80 incubated for 5 to 7 days by microplate alamar blue assay; format: functional
[3] = Cytotoxicity against CRFK cells assessed as cell viability after 4 to 6 days by formazan-based MTS assay; set-up: species or system Felis catus; conditions: cat
[4] = Cytotoxicity against HEL cells assessed as cell viability after 4 to 6 days by microscopic analysis; format: cell-based; conditions: human
[5] = Cytotoxicity against human HeLa cells assessed as cell viability after 4 to 6 days by microscopic analysis; format: cell-based
[6] = Cytotoxicity against African green monkey Vero cells assessed as cell viability after 4 to 6 days by microscopic analysis; format: cell-based; conditions: chlorocebus sabaeus
[7] = Cytotoxicity against MDCK cells assessed as cell viability after 4 to 6 days by formazan-based MTS assay; set-up: species or system Canis lupus familiaris; conditions: dog
[8] = Cytotoxicity against MDCK cells assessed as cell viability after 4 to 6 days by microscopic analysis; format: cell-based, Canis lupus familiaris; conditions: dog
Influenza A virus [9] = experiment: Antiviral activity against Influenza A virus (A/Puerto Rico/8/(H1N1)) assessed as inhibition of virus-induced cytopathic effect after 3 to 6 days by formazan-based MTS assay; format: functional, organism-based
Mycobacterium avium [10] = experiment: Antimycobacterial activity against Mycobacterium avium CNCTC My 80/72 after 5 days by microplate alamar blue assay; format: functional; conditions: CNCTC My 80/72, 120 h
Mycobacterium avium [11] = experiment: Antimycobacterial activity against Mycobacterium avium CNCTC My 152/73 after 5 days by microplate alamar blue assay; format: functional; conditions: CNCTC My 152/73, 120 h
Escherichia coli = experiment: Antibacterial activity against Escherichia coli CCM 4517 after 24 to 48 hrs by broth microdilution method; format: functional
Pseudomonas aeruginosa = experiment: Antibacterial activity against Pseudomonas aeruginosa CCM 1961 after 24 to 48 hrs by broth microdilution method; format: functional
Klebsiella pneumoniae [12] = experiment: Antibacterial activity against Klebsiella pneumoniae D 11750/08 after 24 to 48 hrs by broth microdilution method; format: functional
Klebsiella pneumoniae [13] = experiment: Antibacterial activity against ESBL positive Klebsiella pneumoniae J 14368/08 after 24 to 48 hrs by broth microdilution method; format: functional
Candida albicans = experiment: Antifungal activity against Candida albicans ATCC 44859 after 24 to 48 hrs by broth microdilution method; format: functional
Candida tropicalis = experiment: Antifungal activity against Candida tropicalis 156 after 24 to 48 hrs by broth microdilution method; format: functional
Pichia kudriavzevii = experiment: Antifungal activity against Candida krusei E28 after 24 to 48 hrs by broth microdilution method; format: functional
Nakaseomyces glabratus = experiment: Antifungal activity against Candida glabrata 20/I after 24 to 48 hrs by broth microdilution method; format: functional
Trichosporon asahii = experiment: Antifungal activity against Trichosporon asahii 1188 after 24 to 48 hrs by broth microdilution method; format: functional
Aspergillus fumigatus = experiment: Antifungal activity against Aspergillus fumigatus 231 after 24 to 48 hrs by broth microdilution method; format: functional
Lichtheimia corymbifera = experiment: Antifungal activity against Lichtheimia corymbifera 272 after 24 to 48 hrs by broth microdilution method; format: functional
[14] = system: Trichophyton mentagrophytes; experiment: Antifungal activity against Trichophyton mentagrophytes 445 after 72 to 120 hrs by broth microdilution method; format: functional
Influenza A virus [15] = experiment: Antiviral activity against Influenza A virus (A/Puerto Rico/8/(H1N1)) assessed as inhibition of virus-induced cytopathic effect after 3 to 6 days by microscopic analysis; format: functional, organism-based
Staphylococcus aureus = experiment: Antibacterial activity against methicillin-resistant Staphylococcus aureus H 5996/08 after 24 to 48 hrs by broth microdilution method; format: functional, organism-based

| Compound | log K [1] | MIC [2] | MIC (Mycobacterium kansasii) | CC50 [3] [µM] | MCC [4] [µM] | MCC [5] [µM] | MCC [6] [µM] | CC50 [7] [µM] | MCC [8] [µM] | EC50 (Influenza A virus [9]) [µM] | MIC (Mycobacterium avium [10]) [µg/mL] | MIC (Mycobacterium avium [11]) [µg/mL] | MIC95 (Escherichia coli) [µM] | MIC95 (Pseudomonas aeruginosa) [µM] | MIC95 (Klebsiella pneumoniae [12]) [µM] | MIC95 (Klebsiella pneumoniae [13]) [µM] | MIC (Candida albicans) [µM] | MIC (Candida tropicalis) [µM] | MIC (Pichia kudriavzevii) [µM] | MIC (Nakaseomyces glabratus) [µM] | further results |
| --- | --- | --- | --- | --- | --- | --- | --- | --- | --- | --- | --- | --- | --- | --- | --- | --- | --- | --- | --- | --- | --- |
| CCCCCCNc1nccnc1C(=O)NCc1ccccc1 | 1.564 | > 100 µg/mL | > 100 µg/mL | > 100 | 100 | > 100 | > 100 | > 100 | 100 | > 100 | > 100 | > 100 | > 500 | > 500 | > 500 | > 500 | > 500 | > 500 | > 500 | > 500 | MIC (Trichosporon asahii): > 500 µM; MIC (Aspergillus fumigatus): > 500 µM; MIC (Lichtheimia corymbifera): > 500 µM; MIC [14]: > 500 µM; EC50 (Influenza A virus [15]): > 100 µM |
| CCCCCNc1cnc(C(=O)NCc2ccccc2)cn1 | 0.638 | 21 µM | > 100 µg/mL | > 100 | > 100 | > 100 | > 100 | > 100 | > 100 | 3.3 | > 100 | > 100 | > 500 | > 500 | > 500 | > 500 | > 500 | > 500 | > 500 | > 500 | MIC (Trichosporon asahii): > 500 µM; MIC (Aspergillus fumigatus): > 500 µM; MIC (Lichtheimia corymbifera): > 500 µM; MIC [14]: > 500 µM; EC50 (Influenza A virus [15]): 37 µM |
| O=C(NCc1ccccc1)c1cncc(NCc2ccccc2)n1 | 0.483 | 157 µM | > 100 µg/mL | – | – | – | – | – | – | – | > 100 | > 100 | – | – | – | – | – | – | – | – | – |
| NC(=O)c1cnccn1 [PYRAZINAMIDE] | -0.687 | 102 µM | > 100 µg/mL | – | – | – | – | – | – | – | – | – | – | – | – | – | – | – | – | – | – |
| CCCCCNc1nccnc1C(=O)NCc1ccccc1 | 1.321 | > 100 µg/mL | > 100 µg/mL | > 100 | ≥ 100 | > 100 | > 100 | > 100 | ≥ 20 | > 100 | > 100 | > 100 | > 500 | > 500 | > 500 | > 500 | > 500 | > 500 | > 500 | > 500 | MIC (Trichosporon asahii): > 500 µM; MIC (Aspergillus fumigatus): > 500 µM; MIC (Lichtheimia corymbifera): > 500 µM; MIC [14]: > 500 µM; EC50 (Influenza A virus [15]): > 100 µM |
| CCCCCCNc1cncc(C(=O)NCc2ccccc2)n1 | 0.986 | 20 µM | 40 µM | > 100 | > 100 | > 100 | 100 | 9.5 | 20 | > 100 | > 100 | > 100 | > 500 | > 500 | > 500 | > 500 | > 500 | > 500 | > 500 | > 500 | Activity (Staphylococcus aureus): inactive; MIC (Trichosporon asahii): > 500 µM; MIC (Aspergillus fumigatus): > 500 µM; MIC (Lichtheimia corymbifera): > 500 µM; MIC [14]: > 500 µM; EC50 (Influenza A virus [15]): > 100 µM |
